Test results taken from US9604987B2, “Synthesis of autophagy inducing compound and the uses thereof” (Hong Kong Baptist University, priority 2012, dated 2017).

Tests used:
N2a cells = assay: Western blot of autophagy marker LC3-II in N2a cells; type: cell-based, mouse; conditions: N2a, oxindole alkaloids, 12 hours
Description: Native and denatured PAGE and Western blotting analysis. Samples to be run under denaturing conditions were lysed with RIPA lysis buffer (150 mM NaCl, 50 mM Tris-HCl, 0.35% sodium deoxycholate, 1 mM EDTA, 1% NP40, 1 mM PMSF, 5 μg/ml aprotinin, 5 μg/ml leupeptin). Samples for native gels were lysed with detergent-free lysis buffer (50 mM Tris/HCl pH 7.4, 175 mM NaCl, 5 mM EDTA pH 8.0, 1 mM PMSF, 5 μg/ml aprotinin, 5 μg/ml leupeptin), and sheared 5 times through a 28-gauge needle followed by 2 times of sonication for 5 seconds according to previously described protocol. For denaturing, SDS-PAGE was performed using Tris-Glycine SDS running buffer and SDS sample buffer, and for native conditions, native-PAGE was run with detergent-free Tris-Glycine running buffer (BN2007, Invitrogen) and 4× native sample buffer (BN2003, Invitrogen) on a pre-casted native PAGE gel (BN1002BOX, Invitrogen). The proteins on the gels were then transferred to PVDF membrane (RPN303F, GE Healthcare) and processed for immunoblotting. Membranes were blocked with 5% non-fat milk and probed with the appropriate primary and secondary antibodies. The desired bands were visualized using the ECL kit (32106, Pierce). The band density was quantified using the ImageJ program and normalized to that of the control group.
In order to confirm the neuronal autophagy inducing activity of Cory B (its chemical structure is shown in FIG. 1A), mouse neuroblastoma N2a, rat phenochromocytoma PC12 and human neurobastoma SH-SY5Y are treated with different concentrations of Cory B for 24 hours and cell lysates are subjected to western blotting analysis of LC3-II expression which is an autophagy-specific marker.
To confirm that enhancement of autophagy markers by Cory B is due to induction of autophagy rather than blockage of autophagosome maturation, N2a cells are treated with 25 μM Cory B or 30 μM lysosome inhibitor CQ together with Cory B for 12 hours. Cell lysates are subject to western blot analysis. Data are presented as the mean±SEM from 3 independent experiments (***p<0.001, one-way ANOVA for multiple comparison and Tukey's test as post hoc test). Both LC3-II levels and the number of GFP-LC3 puncta in the Cory B and CQ co-treatment group are much higher than in the CQ-alone treatment group (FIG. 2A-D). Meanwhile, Cory B induces GFP-LC3 puncta formation is abolished by treatment of 5 mM autophagy inhibitor 3-MA for 24 hours (FIG. 2C, D). Cells were fixed in 4% paraformaldehyde and analyzed under a confocal microscope. Data are presented as the mean±SEM of one representative experiment from three independent experiments. (***p<0.001, one-way ANOVA for multiple comparison and Tukey's test as post hoc test). […] Thus, Cory B is indeed an autophagy inducer in neuronal cells.
To compare the activities of oxindole alkaloids on autophagy induction, LC3II expression levels in N2a cells after treatment with Corynoxine B (Cory B) (FIG. 8A), Corynoxine (Cory) (FIG. 8B), Rhynchophylline (Rhy) (FIG. 8C) and Isorhynchophylline (IsoRhy) for 12 hours are examined.
In order to examine the pro-autophagic activities of the synthesized Cory B analogues, neuroblastoma 2a, a neuronal cell line, are treated with various concentrations of the analogues for 12 hrs. The cells are then harvested and lysed with RIPA buffer (150 mM NaCl, 50 mM Tris-HCl pH 7.4, 0.35% sodium deoxycholate, 1 mM EDTA, 1% NP40, 1 mM PMSF, 5 μg/ml aprotinin, 5 μg/ml leupeptin). The sample are lysed on ice with occasional vortex for 30 min, and then centrifuged at 14,000 rpm for 15 min at 4° C. The supernatant are collected and denatured at 95° C. in sample buffer for 5 min. The denatured samples are then separated on 15% SDS-PAGE gels and transferred to PVDF membrane. Membranes are then blocked with 5% non-fat milk and probed with appropriate primary and secondary antibodies. The protein signals of LC3II, marker protein of autophagy, are finally visualized with ECL kit and the protein bands density are quantified by ImageJ program. […]

N2a Swedish APP cells = assay: APP reduction in N2a Swedish APP cells (western blot); type: cell-based, mouse; conditions: different concentrations, with or without CQ and 3MA
Description: N2a Swedish APP cells are incubated with different concentration of Cory and Cory B in the presence or absence of CQ and 3MA. […] Tg2567 APP mice, 3 months old JNPL P301 Tau mice and WT mice intraperitoneally are administrated with 20 mg/kg/d CoryB.

Row | SMILES | autophagy induction (LC3II expression level) (N2a cells) | full length and CTF APP (N2a Swedish APP cells)
1 | CC[C@H]1CN2CC[C@@]3(C(=O)Nc4ccccc43)[C@@H]2C[C@@H]1/C(=C\OC)C(=O)OC [IsoRhy, Isorhynchophylline, reference compound] | did not show any activity on autophagy induction | 
2 | CC[C@@H]1CN2CC[C@@]3(C(=O)Nc4ccccc43)C2C[C@@H]1C(=COC)C(=O)OC (stereo partly shown) [Cory, corynoxine] | significantly activate autophagy | dose-dependently reduce both full length and CTF APP
3 | CC[C@H]1CN2CC[C@]3(C(=O)Nc4ccccc43)[C@@H]2C[C@@H]1/C(=C\OC)C(=O)OC [Rhy, Rhynchophylline, reference compound] | did not show any activity on autophagy induction | 
